Source: patent US20230322861A1, “SYNTHETIC PEPTIDES FOR DISSOLVING TAU INCLUSIONS” (The Trustees of Princeton University, priority 2022, published 2023)

Experiments:
Assay type in all cases: cell-based
tau inclusions [1] = assay: co-expression of fluorescent-tagged tau inclusions with mCherry-tagged synthetic peptide sequences; probability of cells containing a tau inclusion; settings: cells expressing peptide-mCherry fusion; FIGS. 2H, 2J, 2K
tau inclusions [2] = assay: as above; settings: at different concentrations of co-expressed peptide-mCherry fusion; FIGS. 2A-2K
Method: Various peptide sequences were tested by co-expressing fluorescent-tagged tau inclusions with mCherry-tagged synthetic peptide sequences, and quantifying a probability of cells containing a tau inclusion at different synthetic peptide concentrations.

[3] = system: tau aggregate-containing cells (strain DS18); assay: curing of tau aggregates in colonies of tau aggregate-containing cells expressing mCherry or SubF-mCherry; settings: expressed for a week, passaged at low density, imaged after 7 days, 14 fields of view; representative field FIGS. 3A-3B
Method: FIGS. 3A-3B are images of representative fields of view of mCherry (3A) or SubF-mCherry (3B) in tau aggregate-containing cell colonies.
As an example of this, mCherry or SubF-mCherry were expressed in tau aggregate-containing cells (strain DS18) for a week. Cells were then passaged into a new dish at low density. After 7 days, 14 fields of view were imaged for each condition, and the fraction of colonies cured of tau aggregates was determined.

Molecule	tau-negative aggregates (aggregates formed absent the presence of tau) (tau inclusions [1])	probability of cells containing a tau inclusion (tau inclusions [2])	colonies with / cured of tau aggregates [3]
CK2 (SDSDS) (ASSSDSDSSSSSSSSSSSSSSSSSSSSSSSSSSSSSSSSSSSSSSSSSSSSA) [#11, 14, mCherry-tagged]	without forming tau-negative aggregates	reduces tau inclusion	–
S52 (Pure Polyserine) [#8]	tau-negative aggregates were noted	no decrease in tau inclusions was seen	–
SR Kinase (SRSRS) (ARSRSRSSSSSSSSSSSSSSSSSSSSSSSSSSSSSSSSSSSSSSSSSSSSSA) [#10, 13, mCherry-tagged]	tau-negative aggregates were noted	reducing tau inclusions, relatively rapidly	–
Sub F-mCherry: SubF sequence (KRKRR followed by 42 serines, SEQ ID NO. 3) fused to mCherry (KRKRRSSSSSSSSSSSSSSSSSSSSSSSSSSSSSSSSSSSSSSSSSS)	–	–	many of the 27 colonies lack aggregates in all cells
SubF Scramble (SSSRSSSSSKSSSSSSASSSSPSSASSSSSRSSSSPSSSSSSKSSSSSRSSS) [#9, 12, mCherry-tagged]	–	no reduction in tau inclusions was seen	–
Human SRRM2 Isoform 1 Fragment 26 (F26) WT (5, mCherry-tagged) SSSSSSGSSSSDSEGSSLPVQPEVALKRVPSPTPAPKEAVREGRPPEPTPAKRKRRSSSSSSSSSSSSSSSSSSSSSSSS	–	reduce the probability of tau inclusions to zero	–
